These results are taken from ChEMBL document CHEMBL3244082, “5-allyl-9-oxobenzomorphans. 3. Potent narcotic antagonists and analgesics-antagonists in the series of substituted 2',9beta-dihydroxy-6,7-benzomorphans” (1977).

A value given as a limit tells only on which side of the number the result lay.

Common to all, as to type: functional
Experiment [1] concerns Mus musculus. Briefly: Analgesic activity in sc dosed mouse assessed as reduction in phenylquinone-induced writhing administered 15 mins prior to phenylquinone-challenge measured up to 10 mins.
Experiment [2] deals with Mus musculus. In words: Narcotic antagonist activity in sc dosed mouse assessed as inhibition of oxymorphone-induced straub tail response administered 10 mins post oxymorphone-challenge.
Experiment [3] relates to Mus musculus. In words: Analgesic activity in mouse assessed as reduction in phenylquinone-induced writhing at 20 mg/kg, sc administered 15 mins prior to phenylquinone-challenge measured up to 10 mins relative to control. The settings on record: route subcutaneous. Also on record: scale not given: the % may be the effect or the level left.
The test system of experiment [4] is Mus musculus. In words: Analgesic activity in mouse assessed as reduction in phenylquinone-induced writhing at 10 mg/kg, sc administered 15 mins prior to phenylquinone-challenge measured up to 10 mins relative to control. Also on record: scale not given: the % may be the effect or the level left. The settings on record: route subcutaneous.
Experiment [5] concerns Mus musculus. Briefly: Analgesic activity in mouse assessed as reduction in phenylquinone-induced writhing at 40 mg/kg, sc administered 15 mins prior to phenylquinone-challenge measured up to 10 mins relative to control. Also on record: scale not given: the % may be the effect or the level left. The conditions noted are these: route subcutaneous.
The test system of experiment [6] is Mus musculus. Briefly: Analgesic activity in po dosed mouse by hot plate test.
For experiment [7], the system named is Rattus norvegicus. Briefly: Analgesic activity in sc dosed rat assessed as reduction in phenylquinone-induced writhing administered 15 mins prior to phenylquinone-challenge measured up to 10 mins.
In experiment [8] the test system is Rattus norvegicus. Briefly: Narcotic antagonist activity in sc dosed rat assessed as reversal of morphine-induced analgesia by tail-flick test.
Experiment [9] relates to Mus musculus. Briefly: Analgesic activity in po dosed mouse assessed as increase in response time by hot plate test relative to control.
Experiment [10] relates to Rattus norvegicus. In words: Narcotic antagonist activity in sc dosed rat assessed as reversal of oxymorphone-induced loss of righting reflex.
Experiment [11] deals with Mus musculus. In words: Narcotic antagonist activity in mouse assessed as inhibition of oxymorphone-induced straub tail response at 5 mg/kg, sc administered 10 mins post oxymorphone-challenge relative to control. The conditions noted are these: route subcutaneous.
The subject of experiment [12] is Mus musculus. Briefly: Narcotic antagonist activity in mouse assessed as inhibition of oxymorphone-induced straub tail response at 2.5 mg/kg, sc administered 10 mins post oxymorphone-challenge relative to control. The conditions noted are these: route subcutaneous.
The subject of experiment [13] is Mus musculus. Briefly: Analgesic activity in mouse assessed as reduction in phenylquinone-induced writhing at 2.5 mg/kg, sc administered 15 mins prior to phenylquinone-challenge measured up to 10 mins relative to control. Also on record: scale not given: the % may be the effect or the level left. The settings on record: route subcutaneous.
Experiment [14] has as its system Mus musculus. Briefly: Analgesic activity in mouse assessed as reduction in phenylquinone-induced writhing at 1.25 mg/kg, sc administered 15 mins prior to phenylquinone-challenge measured up to 10 mins relative to control. Also on record: scale not given: the % may be the effect or the level left. The conditions noted are these: route subcutaneous.
Where [15] appears, read: Mus musculus, sc, read-out: ED50.
The mark [16] stands for this setting: Mus musculus, sc, 10 min, read-out: ED50.

Take `CC1C[C@]23CCN(C)[C@H](Cc4ccc(O)cc42)[C@H]3O1` (some centres not stated): the ED50 in [1] (setting [15]) was 19 mg/kg; in [2] (setting [16]) it was over 40 mg/kg. Moreover, the Activity was found to be 63% in experiment [3] and 0% in experiment [4].

Consider `C=CC[C@]12CCN(CC3CC3)[C@H](Cc3ccc(O)cc31)[C@@]2(C)O.O=C(O)C(O)C(O)C(=O)O` (stereo in doubt; (+)-23a), for which the 50% effective dose (ED50) in [1] and in experiment [2] was over 40 mg/kg each time.

`C=CC[C@]12CCN(Cc3ccco3)[C@H](Cc3ccc(O)cc31)[C@@]2(C)O.O=C(O)C(=O)O`: the results for the median effective dose (ED50) in [1] (setting [15]) and in [2] (setting [16]) were 36 mg/kg and 1.3 mg/kg, respectively. Also, the figures for the Activity in experiment [3] and in experiment [5] were 0% and 66%, respectively.

Regarding `CN(C)CC1C[C@]23CCN(C)[C@H](Cc4ccccc42)[C@@]3(C)O1.Cl` (some centres not stated), the ED50 in experiment [6] and in experiment [2] (setting [16]) was over 40 mg/kg in each case.

Regarding `C=CC[C@]12CCN(CC3CC3)[C@H](Cc3ccc(O)cc31)[C@@]2(C)O.O=C(O)C(O)C(O)C(=O)O` (stereo in doubt; (-)-23a), the ED50 was determined as 8 mg/kg in experiment [7], 44 mg/kg in [1] (setting [15]), 0.08 mg/kg in experiment [2] and 0.006 mg/kg in [8].

Consider `CC1C[C@]23CCN(C)[C@H](Cc4ccccc42)[C@H]3O1` (some centres not stated), for which the “%max” value in [9] came out at 16%. Further, the ED50 in experiment [6] is 30 mg/kg; in experiment [2] (setting [16]) it was over 40 mg/kg.

As for `C=CC[C@]12CCN(CC3CC3)[C@H](Cc3ccc(O)cc31)[C@H]2O`, the ED50 in experiment [2] (setting [16]) was 0.5 mg/kg.

As for `C=CC[C@]12CCN(CC3CCC3)[C@H](Cc3ccc(O)cc31)[C@H]2O`, the ED50 in experiment [1] (setting [15]) was 0.3 mg/kg; in [2] (setting [16]), 1.8 mg/kg.

For the molecule `CCC[C@]12CCN(CC3CCC3)[C@H](Cc3ccc(O)cc31)[C@@]2(C)O.Cl`, the median effective dose (ED50) in [1] (setting [15]) stood at 0.18 mg/kg; in [2] (setting [16]), 1.17 mg/kg; in experiment [8], 0.084 mg/kg.

For `CCC[C@]12CCN(CC3CC3)[C@H](Cc3ccc(O)cc31)[C@@]2(C)O`, the 50% effective dose (ED50) amounted to 0.013 mg/kg in experiment [10]; 30 mg/kg in [7]; 44 mg/kg in experiment [1] (setting [15]); 0.074 mg/kg in [2] (setting [16]); 0.008 mg/kg in [8].

On to `CC1C[C@]23CCN(C4CCC4)[C@H](Cc4ccc(O)cc42)[C@@]3(C)O1` (some centres not stated), for which the ED50 in experiment [11] came to 100 mg/kg; in experiment [1] (setting [15]), 40 mg/kg; in experiment [12] it was 33 mg/kg; in experiment [2] (setting [16]), 3 mg/kg. Also, the Activity in experiment [3] worked out at 33%; in experiment [5], 50%.

As to `C=CC[C@]12CCN(C)[C@H](Cc3ccc(O)cc31)[C@H]2O`, the Activity in [13] came out at 78%; in [14] it was 1.25%. The ED50 in experiment [1] (setting [15]) is 1.9 mg/kg; in experiment [2] (setting [16]) it was over 40 mg/kg.

In the case of `CC1C[C@]23CCN(C4CC4)[C@H](Cc4ccc(O)cc42)[C@@]3(C)O1` (some centres not stated), the ED50 in experiment [1] (setting [15]) was over 40 mg/kg; in experiment [2] (setting [16]), 0.63 mg/kg.

Regarding `C=CC[C@]12CCN(CC3CCC3)[C@H](Cc3ccc(O)cc31)[C@@]2(C)O.O=C(O)C(O)C(O)C(=O)O` (stereo in doubt; (-)-23b), the ED50 in experiment [10] amounted to 0.05 mg/kg; in [7], 0.01 mg/kg; in [1] it was 0.06 mg/kg; in experiment [2], 0.43 mg/kg; in experiment [8], 0.08 mg/kg.

`Br.CN1CC[C@]23CC(CBr)O[C@]2(C)[C@H]1Cc1ccccc13` (some centres not stated): the “%max” value in experiment [9] came to 32%. The ED50 was 64 mg/kg in experiment [6] and over 40 mg/kg in [2] (setting [16]).

In the case of `CCC[C@]12CCN(CC3CC3)[C@H](Cc3ccc(O)cc31)[C@H]2O`, the ED50 came out at 0.07 mg/kg in experiment [1] (setting [15]) and 0.62 mg/kg in experiment [2] (setting [16]).

Consider `CCC[C@]12CCN(CC)[C@H](Cc3ccc(O)cc31)[C@@]2(C)O`, for which the median effective dose (ED50) in experiment [1] (setting [15]) is 2.1 mg/kg; in experiment [2] (setting [16]), over 40 mg/kg.

For `CCC[C@]12CCN(CC3CCC3)[C@H](Cc3ccc(O)cc31)[C@H]2O`, the ED50 turned out to be 0.24 mg/kg in experiment [1] (setting [15]) and 2.5 mg/kg in experiment [2] (setting [16]).

As for `C=CC[C@]12CCN(CC)[C@H](Cc3ccc(O)cc31)[C@@]2(C)O.O=C(O)C(=O)O`, the results for the ED50 in experiment [1] (setting [15]) and in experiment [2] (setting [16]) were 2 mg/kg and over 40 mg/kg, respectively.

Turning to `CC1C[C@]23CCN(C)[C@H](Cc4ccc(O)cc42)[C@@]3(C)O1` (some centres not stated), the median effective dose (ED50) in experiment [1] (setting [15]) is 18 mg/kg; in [2] (setting [16]), over 40 mg/kg. The Activity in experiment [3] was 65%; in [4], 5%.

On to `C=CC[C@]12CCN(CC3CC3)[C@H](Cc3ccc(O)cc31)[C@@]2(C)O`, for which the ED50 in [1] (setting [15]) amounted to 45 mg/kg.

As to `Oc1ccc2c(c1)[C@@]13CCCC[C@@]1(O)[C@@H](C2)N(CC1CCC1)CC3` [BUTORPHANOL], the ED50 was 0.27 mg/kg in experiment [10]; 0.04 mg/kg in experiment [7]; 0.05 mg/kg in experiment [1] (setting [15]); 0.98 mg/kg in experiment [2] (setting [16]); 0.43 mg/kg in experiment [8].

For the molecule `CC1C[C@]23CCN(C)[C@H](Cc4ccccc42)[C@@]3(C)O1.Cl` (some centres not stated), the “%max” value in [9] is given as 16%. For the same molecule, the values for the ED50 in experiment [6] and in experiment [2] (setting [16]) were 16 mg/kg and over 40 mg/kg, respectively.

Take `Oc1ccc2c(c1)[C@@]13CCCC[C@@]1(O)[C@@H](C2)N(CC1CC1)CC3` [OXILORPHAN]: the ED50 in experiment [10] was found to be 0.03 mg/kg; in [7] it was 8 mg/kg; in experiment [1] (setting [15]) it was 13 mg/kg; in [2] (setting [16]) it was 0.19 mg/kg; in [8], 0.012 mg/kg.

With `CC1C[C@]23CCN(C4CC4)[C@H](Cc4ccc(O)cc42)[C@H]3O1` (some centres not stated), the median effective dose (ED50) in [1] (setting [15]) turned out to be 30 mg/kg; in [2] (setting [16]), 8 mg/kg. The Activity was 23% in experiment [3] and 67% in [5].

On to `C=CC[C@]12CCN(CC3CCC3)[C@H](Cc3ccc(O)cc31)[C@@]2(C)O.O=C(O)C(O)C(O)C(=O)O` (stereo in doubt; (+)-23b), for which the ED50 in experiment [1] and in experiment [2] was over 40 mg/kg each time.
